Test results: patent publication US20200009137A1, “TOPICAL FORMULATIONS AND USES THEREOF” (SUN PHARMA GLOBAL FZE, priority 2015, published 2020)

How the values were obtained:
[1] = 1H NMR qualitative studies for free drug; format: physicochemical; details: D2O; drug peaks evident in CDCl3
Method: To determine the absence of free drug in the outer aqueous environment, qualitative studies were conducted. Qualitative proton nuclear magnetic resonance (NMR) studies were conducted with Varian 400 MHz NMR. Deuterated chloroform and water as solvent systems were used to resuspend the formulation and NMR studies were performed.

[2] = Ocular tissue distribution of RX-10045 / RX-10008 (LC-MS/MS); format: in vivo, rabbit; details: topical ocular RX-10045 formulations 4×/day for 5 days, rabbits
Method: A study was conducted in rabbits to test the tolerance and ocular tissue distribution of two nanomicellar formulations of compound 1001 (RX10045) against matching placebos (Table 7a and 7b) and balanced saline solution (BSS). Healthy New Zealand female white rabbits (2-3 kg) were used for this study. One drop (approximately 35 μL) of study drug was applied o.d. 4×/day at two hour intervals for 5 days. One drop of BSS was applied to the contralateral eye.
Selected ocular fluids/tissues (aqueous humor, vitreous humor, conjunctiva, cornea, iris-ciliary body, lens, retina/choroid, and sclera) collected from two rabbits each in the RX-10045 (0.15% in HCO-60, 0.1% in HCO-40) treatment groups, and from one rabbit in each of the matching placebo groups, were assayed for compound 1001 and another resolvin by liquid chromatography-tandem mass spectrometry (LC-MS/MS). Warfarin-d5 and 5-HDA were used as internal standards for the analysis of RX-10045 and its active metabolite, RX-10008, respectively, in aqueous humor and vitreous humor. For the other ocular tissues (solid tissues), warfarin-d5 and phenyl acetic acid-d5 (PAA-d5) were used as the internal standards for compound 1001 and RX-10008, respectively. The analytical range for the solid tissues were 0.125-100 ng. The results of the solid tissue analyses were converted to ng/g by correcting for the amount of tissue analyzed.

Free drug when MNF is resuspended in aqueous solution (qualitative proton NMR) [1]: not freely available
Compound: C#CC[C@@H](O)/C=C/C=C/C#C[C@@H](O)CCCC(=O)OC(C)C [compound 1001]
Compound 1001 in the majority of ocular tissues [2]: either not detected or was below the quantitation limit of the assay
